Test results from US4017607A.
≈ marks a conversion by molar mass, not a printed value. Like-named read-outs stand apart in the source and are kept apart here.

Columns and labels:
[1] = system: Staphylococcus aureus 209P; experiment: Minimum inhibitory concentration, serial dilution method, Brain Heart Infusion broth; type: cell-based; conditions: Staphylococcus aureus, 209P, 24 h, read-out: Minimum Inhibitory Concentration
[2] = system: Staphylococcus aureus 209P; conditions: 7th day, 10 mice per group
[3] = system: Bacillus subtilis ATCC 6633; experiment: Minimum inhibitory concentration, serial dilution method; type: cell-based; conditions: Bacillus subtilis, ATCC6633, 24 h, read-out: Minimum Inhibitory Concentration
[4] = system: Streptococcus hemolyticus D-90; experiment: as above; type: cell-based; conditions: Streptococcus pyogenes, D90, 24 h, read-out: Minimum Inhibitory Concentration
[5] = system: Streptococcus pyogenes D-58; experiment: as above; type: cell-based; conditions: Streptococcus pyogenes, D58, 24 h, read-out: Minimum Inhibitory Concentration
[6] = system: Corynebacterium diphtheriae Type gravis; experiment: as above; type: cell-based; conditions: Corynebacterium diphtheriae, 24 h, read-out: Minimum Inhibitory Concentration
[7] = system: Corynebacterium diphtheriae Type intermedius; experiment: as above; type: cell-based; conditions: Corynebacterium diphtheriae, 24 h, read-out: Minimum Inhibitory Concentration
[8] = Acute toxicity by oral administration to mice; conditions: mouse, in vivo, free base
[9] = system: Staphylococcus aureus Smith; experiment: Minimum inhibitory concentration, serial dilution method; type: cell-based; conditions: Staphylococcus aureus, 24 h, read-out: Minimum Inhibitory Concentration
[10] = system: Staphylococcus albus 1200A; experiment: as above; type: cell-based; conditions: Staphylococcus, 1200A, 24 h, read-out: Minimum Inhibitory Concentration
[11] = system: Bacillus anthracis No. 119; experiment: microbe, parasite or virus in culture; type: cell-based; conditions: NO.119, 24 h, read-out: Minimum Inhibitory Concentration
[12] = system: Streptococcus faecalis ATCC 8043; experiment: Minimum inhibitory concentration, serial dilution method; type: cell-based; conditions: Enterococcus faecalis, ATCC8043, 24 h, read-out: Minimum Inhibitory Concentration
[13] = system: Bacillus subtilis PCI 219; experiment: as above; type: cell-based; conditions: Bacillus subtilis, PCI219, 24 h, read-out: Minimum Inhibitory Concentration
[14] = system: Sarcina lutea; experiment: as above; type: cell-based; conditions: Micrococcus luteus, 24 h, read-out: Minimum Inhibitory Concentration
[15] = system: Diplococcus pneumoniae Type III; experiment: as above; type: cell-based; conditions: Streptococcus pneumoniae, 24 h, read-out: Minimum Inhibitory Concentration
[16] = system: Diplococcus pneumoniae Type I; experiment: as above; type: cell-based; conditions: Streptococcus pneumoniae, 24 h, read-out: Minimum Inhibitory Concentration
[17] = system: Streptococcus hemolyticus Cook; experiment: as above; type: cell-based; conditions: Streptococcus pyogenes, 24 h, read-out: Minimum Inhibitory Concentration
[18] = system: Staphylococcus aureus Terajima; experiment: as above; type: cell-based; conditions: Staphylococcus aureus, 24 h, read-out: Minimum Inhibitory Concentration

With CCC(=O)OC1CC(=O)OC(C)CC=CC=CC(O)C(C)CC(CC=O)C(OC2OC(C)C(OC3CC(C)(O)C(OC(=O)CC)C(C)O3)C(N(C)C)C2O)C1OC (stereo not shown) [SF-837 substance, reference compound] the MIC [1] was 0.78 µg/mL (≈ 0.958 µM), the “Rate of surviving mice in each group of mice” value ([2]; 100 mg/kg oral) was 0/10 and the “Rate of surviving mice in each group of mice” value ([2]; 200 mg/kg oral) was 6/10. For the same compound, the MIC [3] was 1.56 µg/mL (≈ 1.92 µM), the MIC [4] was 1.56 µg/mL (≈ 1.92 µM) and the MIC [5] was 0.09 µg/mL (≈ 0.111 µM). It also gave an MIC [6] of 0.19 µg/mL (≈ 0.233 µM), an MIC [7] of 0.19 µg/mL (≈ 0.233 µM) and an LD50 [8] of 3200 mg/kg. The MIC [9] was 0.19 µg/mL (≈ 0.233 µM), the MIC [10] was 0.78 µg/mL (≈ 0.958 µM) and the MIC [11] was 0.78 µg/mL (≈ 0.958 µM). The MIC [12] was 1.56 µg/mL (≈ 1.92 µM), the MIC [13] was 0.78 µg/mL (≈ 0.958 µM) and the MIC [14] was 0.09 µg/mL (≈ 0.111 µM). For the same compound, the MIC [15] was 0.04 µg/mL (≈ 0.0491 µM), the MIC [16] was 0.04 µg/mL (≈ 0.0491 µM) and the MIC [17] was 0.09 µg/mL (≈ 0.111 µM). It also gave an MIC [18] of 1.56 µg/mL (≈ 1.92 µM).
